Chromatographic logD data for 16 compounds are collected here from ChEMBL document CHEMBL3351403, “Lead identification of benzimidazolone and azabenzimidazolone arylsulfonamides as CC-chemokine receptor 4 (CCR4) antagonists” (Bioorg Med Chem, 2014).

The data set can be described thus: Lipophilicity, log D of the compound at pH 7.4 by chromatography. It counts as physicochemical. The conditions noted are these: buffer.
For `COc1cccc2c1c(NS(=O)(=O)c1cccc(Cl)c1Cl)nn2C`, the chromatographic logD was determined as 5.3. The value for `COc1cc2[nH]c(=O)[nH]c2cc1NS(=O)(=O)c1cccc(Cl)c1Cl` was 3.2. The value for `COc1cc2c(cc1NS(=O)(=O)c1cccc(Cl)c1Cl)[nH]c(=O)n2C` was 3.8; that for `COc1cc2[nH]c(=O)n(C)c2cc1NS(=O)(=O)c1cccc(Cl)c1Cl` was 3.7. As for `COc1cc2c(cc1NS(=O)(=O)c1cccc(Cl)c1Cl)n(C)c(=O)n2C`, the figure is 4.4; as for `COc1cc2c(cc1NS(=O)(=O)c1cccc(Cl)c1Cl)[nH]c(=O)n2CC(N)=O`, 2.5; as for `COc1cc2[nH]c(=O)n(CC(N)=O)c2cc1NS(=O)(=O)c1cccc(Cl)c1Cl`, 2.4. `COc1cc2c(cc1NS(=O)(=O)c1cccc(Cl)c1Cl)[nH]c(=O)n2C(C)C` yielded a chromatographic logD of 4.7. In turn, `COc1cc2c(cc1NS(=O)(=O)c1cccc(Cl)c1Cl)[nH]c(=O)n2C1COC1` had a chromatographic logD of 4.6. As for `CCCn1c(=O)[nH]c2cc(NS(=O)(=O)c3cccc(Cl)c3Cl)c(OC)cc21`, the figure is 3.2. The value for `COc1cc2c(cc1NS(=O)(=O)c1cccc(Cl)c1Cl)[nH]c(=O)n2CCN(C)C` was 2.6. With `COc1cc2c(cc1NS(=O)(=O)c1cccc(Cl)c1Cl)[nH]c(=O)n2C(CO)CO`, the chromatographic logD stood at 2.1. As for `COc1cc2c(cc1NS(=O)(=O)c1cccc(Cl)c1Cl)[nH]c(=O)n2C1CNC1`, the figure is 3; as for `COc1cc2c(cc1NS(=O)(=O)c1cccc(Cl)c1Cl)[nH]c(=O)n2C1CN(C(C)=O)C1`, 3.7.

As to `COc1cc2[nH]c(=O)[nH]c2nc1NS(=O)(=O)c1cccc(Cl)c1Cl`, the chromatographic logD turned out to be 2.4. As for `COc1nc2[nH]c(=O)[nH]c2cc1NS(=O)(=O)c1cccc(Cl)c1Cl`, the figure is 3.2.
